One data set deals with primed THP-1 cells. Briefly: Canonical inflammasome assay, IL-1β release in primed THP-1 cells. Type of data set: cell-based, human. The procedure: Human IL-1β, mouse IL-1β, IL-6, IL-18, TNF-α, and CXCL1 levels were measured according to the protocols provided by the manufacturer. Serum samples were diluted before ELISA when applicable. In this study, all the samples were frozen after collection and thawed before ELISA.
Naïve THP-1 cells were primed with 0.5 μM phorbol 12-myristate 13-acetate for 3 hr the day before stimulation. Primed THP-1 cells were pre-incubated in RPMI-1640 medium in the presence or absence of sUA (5 or 10 mg/dL) for 2 hr. The cells were then washed twice with sterile PBS, and were stimulated with MSU crystals, cLPS, zymosan, and ATP in serum-free RPMI-1640 medium for 4 hr.
After stimulation, the culture medium was collected and centrifuged at 3000 rpm, 4°C for 5 min, the supernatant was collected and stored at –30°C until ELISA.

Data set [1] can be described thus: Solubility and crystal precipitation in solution. Type of data set: physicochemical. The procedure:
Guanosine was dissolved in DMSO and diluted in the reaction buffer for subsequent assays.
MSU crystals were prepared by the recrystallization of oversaturated sUA according to a previous report ([Martinon et al., 2006]). Improper preparation of sUA solution may introduce crystals to cause false-positive or false-negative results. […] In this study, the sUA solution was prepared according to an improved protocol ([Ma et al., 2020]). […] Then, sUA solution was immediately filtered by 0.2 μm filters and diluted to experimental concentration (up to 10 mg/dL, 595 μM) for cell experiments. […]

Data set [2] concerns the target T1, poly(ADP-ribose) polymerase (PARP) (Homo sapiens, UniProt P09874).
T1 construct: purchased R&D Systems 4677-096-K
As to the kind of experiment: PARP activity (colorimetric kit). Type of data set: biochemical. The note with it: Figure 3—figure supplement 2C. The protocol:
The activities of NAMPT and PARP were measured using commercial kits, HT Universal Colorimetric PARP Assay Kit, and CycLex NAMPT Colorimetric Assay Kit Ver.2. The solutions of ligands were freshly prepared (pH was adjusted to 7.4) and were immediately used for enzyme assays.

The target of data set [3] is T2, recombinant human CD38 (hCD38) (Homo sapiens, UniProt P28907).
T2 construct: the commercial recombinant hCD38 without a transmembrane region was partially used in this study; purchased Sino Biological 10818-H08H
T2 sequence (P28907 43-300 limits assumed): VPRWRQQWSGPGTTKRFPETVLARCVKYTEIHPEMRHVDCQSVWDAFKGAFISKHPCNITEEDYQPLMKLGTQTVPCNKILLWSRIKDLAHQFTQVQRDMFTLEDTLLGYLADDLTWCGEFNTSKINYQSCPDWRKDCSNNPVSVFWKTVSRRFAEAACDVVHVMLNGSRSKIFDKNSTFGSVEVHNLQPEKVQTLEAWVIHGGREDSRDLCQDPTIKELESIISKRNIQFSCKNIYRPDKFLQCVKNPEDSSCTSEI
As to the kind of experiment: CD38 cyclase activity, recombinant hCD38 (NGD substrate). Format: biochemical. As to conditions: sUA 0–500 μM, Figure 1B. The protocol: The cyclase activity of CD38 was measured as previously described ([Higashida et al., 1999]; [Jin et al., 2007]). CD38 cyclase activity was measured using 60 μM NGD as a substrate in cyclase reaction buffer (100 mM KCl, 10 μM CaCl2, and 50 mM Tris-HCl, pH 6.6). Tissues were cut into pieces and suspended in the buffer (5 mM MgCl2, 10 mM Tris-HCl, pH 7.3) at 4°C for 30 min. Then, the suspension was homogenized on ice, and the supernatant was collected after centrifugation. To collect the crude membrane fractions, the supernatant was centrifuged at 105,000×g for 30 min. The final pellet was resuspended in 10 mM Tris-HCl solution (pH 6.6) for cyclase assay. Homogenates of THP-1 or A549 cells, and recombinant hCD38 were used directly for cyclase assays. The loading volume of enzyme was 4–20 μL, the total volume of reaction system was 3 mL. To detect enzyme inhibition, except when specified, the ligands were directly dissolved in cyclase reaction buffer before pH adjustment, after which, the pH was immediately adjusted to 6.6. […]
The reaction buffer for hydrolase or cyclase assays was excited at 300 nm, and fluorescence emission was measured every second at 410 nm by Shimazu RF-6000 spectrofluorometer. Hydrolase or cyclase activity was calculated from the linear portion of the time course by fitting a linear function to the data points recorded within 5 min.

Another data set has as its system WT BMDMs. As to the kind of experiment: Intracellular NAD+ in primed WT BMDMs treated with NMN. Format: cell-based, mouse. The note with it: sUA 100, 200 and 500 μM; NMN 100 μM, 6 hr. The procedure: Bone marrow cells were isolated from 10- to 12-week-old WT or CD38 KO mice (both male and female) by washing the marrow cavity with sterile PBS. The collected bone marrow cells were filtered by 70 μm strainers and then centrifuged at 1000 rpm, 4°C for 5 min. The cell pellet was resuspended in 2 mL red blood cell (RBC) lysis buffer for 30 s, then 8 mL complete RPMI-1640 medium (10% FBS, 1% penicillin/streptomycin, and 50 μM 2-mercaptoethanol) was added to terminate the lysis. After 5 min centrifugation at 1000 rpm, 4°C, the cells were resuspended in fresh complete RPMI-1640 medium and maintained for 4 hr in an incubator. Adherent cells were discarded, whereas non-adherent cells were cultured in complete RPMI-1640 medium containing 20 ng/mL M-CSF. After 3-day differentiation, the medium was replaced with fresh complete RPMI-1640 medium containing 20 ng/mL M-CSF. On the 7th day, BMDMs were collected for subsequent experiments. BMDMs were primed with 100 ng/mL ultrapure LPS for 4 hr for canonical inflammasome assay. For metabolic assay of NMN, BMDMs were primed with 100 ng/mL ultrapure LPS for 8 hr to induce higher protein expression of CD38.
WT BMDMs were primed with 100 ng/mL ultrapure LPS for 8 hr. Then, the cells were washed twice with sterile PBS. Afterward, the cells were incubated in control or 100 μM NMN-supplemented RPMI-1640 medium in the presence of sUA or 78c. […]

T1 sequence (P09874 whole entry): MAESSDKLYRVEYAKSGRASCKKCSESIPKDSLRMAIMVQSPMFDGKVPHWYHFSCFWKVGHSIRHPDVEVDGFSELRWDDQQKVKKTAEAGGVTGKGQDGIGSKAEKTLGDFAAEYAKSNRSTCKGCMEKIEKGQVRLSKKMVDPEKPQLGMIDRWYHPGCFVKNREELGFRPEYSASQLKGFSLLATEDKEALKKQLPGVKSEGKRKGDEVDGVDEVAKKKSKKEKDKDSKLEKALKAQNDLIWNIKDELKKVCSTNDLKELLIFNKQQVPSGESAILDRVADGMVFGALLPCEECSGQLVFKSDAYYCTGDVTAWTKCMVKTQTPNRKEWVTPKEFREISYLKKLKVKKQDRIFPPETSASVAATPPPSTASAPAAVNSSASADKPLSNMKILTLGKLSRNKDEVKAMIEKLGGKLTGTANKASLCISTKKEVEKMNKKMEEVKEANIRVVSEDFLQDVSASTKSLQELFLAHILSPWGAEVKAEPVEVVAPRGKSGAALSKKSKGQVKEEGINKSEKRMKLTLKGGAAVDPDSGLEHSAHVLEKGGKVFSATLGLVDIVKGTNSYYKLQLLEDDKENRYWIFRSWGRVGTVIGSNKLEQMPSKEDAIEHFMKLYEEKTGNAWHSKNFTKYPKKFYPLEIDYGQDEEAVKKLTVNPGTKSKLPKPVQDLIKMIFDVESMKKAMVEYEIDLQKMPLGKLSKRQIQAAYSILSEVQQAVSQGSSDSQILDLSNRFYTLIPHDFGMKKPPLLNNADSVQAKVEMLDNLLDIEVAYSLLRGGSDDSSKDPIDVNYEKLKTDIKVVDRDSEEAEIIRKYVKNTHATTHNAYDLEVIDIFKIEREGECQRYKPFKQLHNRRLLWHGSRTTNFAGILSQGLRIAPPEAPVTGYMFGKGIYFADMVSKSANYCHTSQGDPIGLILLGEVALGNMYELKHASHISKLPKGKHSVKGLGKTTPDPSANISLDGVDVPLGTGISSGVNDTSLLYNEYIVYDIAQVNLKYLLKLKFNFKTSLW

As usually defined, the Ki is the dissociation constant of the complex between target and ligand, obtained from inhibition or displacement. As to `O=c1[nH]c(=O)c2[nH]c(=O)[nH]c2[nH]1` [sUA, uric acid], in the data set with primed THP-1 cells, the “Induction of IL-1β release by sUA itself” value was “did not induce IL-1β release”. Further, the “IL-1β release after stimulation” value in the data set on primed THP-1 cells (sUA pre-incubation 2 hr, then MSU crystals, cLPS, zymosan or ATP) is recorded as “moderately limited IL-1β release”. The “Crystal precipitation in stock solution” value is “Visible crystals were observed” in data set [1] (5 mg/mL in NaOH without pH adjustment, 2-month storage at 4°C) and “Crystals were immediately precipitated after dissolution” in data set [1] (50 mg/mL in NaOH without pH adjustment). In data set [1] (long-term storage at 4°C), the “Crystal precipitation in high-concentration stock solutions” value is reported as “promoted crystal precipitation”. Also, the “Effect on PARP activity” value in data set [2] is given as “without affecting the activities”. The Ki in data set [3] amounted to 57.1 µM. Besides, the “Intracellular NAD+ in primed WT BMDMs treated with NMN” value in the data set with WT BMDMs was “failed to boost intracellular NAD^+”.

The record behind these values is publication PMC11554305, “Functional identification of soluble uric acid as an endogenous inhibitor of CD38” (eLife, 2024).
